We go through two molecules from US20140288013A1, “METHODS AND COMPOSITIONS FOR THE MANAGEMENT OF CANCER USING 2-DG AND AN IGF-IR INHIBITOR” (priority 2011, published 2014).

One may read the IC50 as the midpoint of a concentration-inhibition curve.

Test [1] addresses IGF-I and IGF-binding protein 3 (IGFBP3) (Homo sapiens, UniProt P05019+P17936). Particulars: 2-DG treatments; cited from earlier work.
The subject of test [2] is A549. Briefly: MTS assay, IC50 in LKB1-null NSCLC cell line A549. It is filed as cell-based. Particulars: Homo sapiens. The text has this: (§1) 2000 cells were seed in each well of a 96-well plate, and exposed to BMS754807 or 2-DG at indicated concentration for 48 hrs.
(§2) Analysis focused on NSCLC cell lines with LKB1 inactivation mutation. A549 and H460 both contain a Q37 to nonsense mutation, and H157 contains exon 2 and 3 deletion. All these mutations results in the loss of LKB1 protein function. MTS assay was used to measure the IC50 of BMS754807 and 2-DG in these cells (FIG. 1).
(Tetrazolium assays rely on reduction of a dye to a coloured formazan, in cell work by metabolically active cells.)

Test [3] relates to H460. Kind of test: MTS assay, IC50 in LKB1-null NSCLC cell line H460. It is filed as cell-based. The note with it: Homo sapiens.
Source text: as §1, §2

The subject of test [4] is H157. Kind of test: MTS assay, IC50 in LKB1-null NSCLC cell line H157. It is filed as cell-based. The note with it: Homo sapiens.
Source text: as §1, §2

In test [5] the test system is AKT. Particulars: through IGF1R and PI3K; cited from earlier work.
For test [6], the system named is H460. Briefly: Combination index analysis of cell proliferation, H460. It is filed as cell-based. The note with it: Homo sapiens.
In test [7] the test system is H157. Briefly: Combination index analysis of cell proliferation, H157. The note with it: Homo sapiens. It is filed as cell-based.
In test [8] the test system is AKT. Kind of test: 2-DG induced AKT phosphorylation in LKB1-null NSCLC cell lines. The note with it: for Akt phosphorylation induced by 2-DG: FIG. 2, cell line not named at the place; for 2-DG induced AKT phosphorylation: pre-incubated with 10 μM BMS754807 for 30 minutes, then 25 mM 2-DG. It is filed as cell-based. On the procedure: Whether 2-DG induced AKT phosphorylation can be blocked by BMS754807 was determined. LKB1-null NSCLC cell lines was pre-incubated with 10 μM of BMS754807 for 30 minutes, and then stimulated with 25 mM 2-DG to induce phosphorylation. BMS754807 blocked 2-DG induced IGF1R and AKT phosphorylation in H460, and H157 cells.

Test [9] deals with IGF1R. Kind of test: 2-DG induced IGF1R phosphorylation in LKB1-null NSCLC cell lines. It is filed as cell-based.

The structures appear in SMILES notation. Like-named read-outs stand apart in the source and are kept apart here.

Chain of IGF-I and IGF-binding protein 3 (IGFBP3) (P17936 28-291, species assumed): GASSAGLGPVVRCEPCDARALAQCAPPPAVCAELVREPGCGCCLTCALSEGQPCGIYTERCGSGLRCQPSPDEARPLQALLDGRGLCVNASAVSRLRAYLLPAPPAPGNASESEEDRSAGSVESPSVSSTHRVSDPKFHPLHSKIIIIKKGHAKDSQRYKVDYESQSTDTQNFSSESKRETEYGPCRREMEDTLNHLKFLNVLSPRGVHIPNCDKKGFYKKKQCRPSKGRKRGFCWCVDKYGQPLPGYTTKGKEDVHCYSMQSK
Chain of IGF-I and IGF-binding protein 3 (IGFBP3) (P05019 49-118 limits assumed, species assumed): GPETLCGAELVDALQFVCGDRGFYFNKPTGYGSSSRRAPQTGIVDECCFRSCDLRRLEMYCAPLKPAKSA

`O=CC[C@@H](O)[C@H](O)[C@H](O)CO` [2-DG, 2-Deoxyglucose]: the “binding between IGF-I and IGFBP3” value in [1] was “disrupted”. For the same molecule, the IC50 in [2] (A549, MTS assay, 48 hrs, read-out: IC50) is 15.7 mM; in [3] (NCI-H460, H460, MTS assay, 48 hrs, read-out: IC50), 14.1 mM; in test [4] (NCI-H157, H157, MTS assay, 48 hrs, read-out: IC50), 21.8 mM. In [5], the “activation of prosurvival oncoprotein AKT” value was “activates”. Moreover, the viability at 2500 µM was determined as 95% in test [6] (NCI-H460, 2-DG 2.5 mM, read-out: FA2-DG (fraction growth inhibition by 2-DG alone)) and 93% in [7] (NCI-H157, 2-DG 2.5 mM, read-out: FA2-DG (fraction growth inhibition by 2-DG alone)). The viability at 5000 µM in test [6] (NCI-H460, 2-DG 5.0 mM, read-out: FA2-DG (fraction growth inhibition by 2-DG alone)) was determined as 81%; in [7] (NCI-H157, 2-DG 5.0 mM, read-out: FA2-DG (fraction growth inhibition by 2-DG alone)), 80%. The viability at 10000 µM in test [6] (NCI-H460, 2-DG 10.0 mM, read-out: FA2-DG (fraction growth inhibition by 2-DG alone)) is 71%; in [7] (NCI-H157, 2-DG 10.0 mM, read-out: FA2-DG (fraction growth inhibition by 2-DG alone)), 69%.

`CC1(C(=O)Nc2ccc(F)nc2)CCCN1c1nc(Nc2cc(C3CC3)[nH]n2)c2cccn2n1` (stereo not shown) [BMS-754807, 1-(4-((5-cyclopropyl-1H-pyrazol-3-yl)amino)pyrrolo[2,1-f][1,2,4]triazin-2-yl)-N-(6-fluoropyridin-3-yl)-2-methylpyrrolidine-2-carboxamide]: the IC50 is 0.0166 mM in [2] (A549, 48 h); 0.00325 mM in [3] (NCI-H460, 48 h); 0.0108 mM in test [4] (NCI-H157, 48 h). Moreover, the “Akt phosphorylation induced by 2-DG” value in test [8] is listed as “block”; in test [8] (listed as BMS754807) it was “blocked”. In addition, the “2-DG induced AKT phosphorylation” value in test [8] (H157 cells) and in [8] (H460 cells) was “blocked” in each case. For the same molecule, the “2-DG induced IGF1R phosphorylation” value in test [9] (FIG. 2, cell line not named at the place) was “blocked”; in test [9] (H157 cells, pre-incubated with 10 μM BMS754807 for 30 minutes, then 25 mM 2-DG), “blocked”; in [9] (H460 cells, pre-incubated with 10 μM BMS754807 for 30 minutes, then 25 mM 2-DG), “blocked”. Besides, the viability at 5 µM in test [6] (NCI-H460, BMS-754807 5.0 uM, read-out: FABMS-754807 (fraction growth inhibition by BMS-754807 alone)) amounted to 80%; in test [7] (NCI-H157, BMS-754807 5.0 uM, read-out: FABMS-754807 (fraction growth inhibition by BMS-754807 alone)), 99%. In addition, the viability at 10 µM in test [6] (NCI-H460, BMS-754807 10.0 uM, read-out: FABMS-754807 (fraction growth inhibition by BMS-754807 alone)) was determined as 69%; in [7] (NCI-H157, BMS-754807 10.0 uM, read-out: FABMS-754807 (fraction growth inhibition by BMS-754807 alone)), 82%.
